Data on 22 molecules can be found in ChEMBL document CHEMBL1134920, “1,3,4-Trisubstituted pyrrolidine CCR5 receptor antagonists. Part 4: synthesis of N-1 acidic functionality affording analogues with enhanced antiviral activity against HIV” (Bioorg Med Chem Lett, 2002).

Data set [1] deals with C-C chemokine receptor type 5 (Homo sapiens, UniProt P51681). Put plainly: In vitro binding affinity at CCR5 receptor in the presence of [125I]-MIP-1 alpha.
Data set [2] relates to Human immunodeficiency virus 1. Briefly: In vitro inhibition of HIV-1 BAL strain infection of HeLa cell line. The settings on record: Human immunodeficiency virus 1, HeLa. The class given is functional.
Data set [3] in a line: Plasma clearance in rhesus monkey. The class given is ADME, organism-based. Particulars: cercopithecidae, read-out: Clp.
Data set [4] can be described thus: Volume of distribution in steady state was determined in rat. The class given is ADME, organism-based. Particulars: in vivo, read-out: Vdss.
The nature of data set [5]: Bioavailability in dog. Type of data set: ADME, organism-based, Canis lupus familiaris. Particulars: in vivo.
Data set [6] addresses Voltage-gated L-type calcium channel (Homo sapiens, UniProt Q13936+Q13698+Q01668+O60840). Briefly: Inhibition of L-type Ca+2 channels. The class given is protein assay.
Data set [7] is described as follows: Plasma clearance in dog. The class given is ADME, organism-based, Canis lupus familiaris. Particulars: read-out: Clp.
Data set [8] in a line: Volume of distribution in steady state was determined in dog. The class given is ADME, organism-based, Canis lupus familiaris. The settings on record: in vivo, read-out: Vdss.
Data set [9] is described as follows: Bioavailability in rat. Type of data set: ADME, organism-based. The settings on record: in vivo.
Data set [10] can be described thus: Half-life in dog. The settings on record: in vivo. Type of data set: ADME, organism-based, Canis lupus familiaris.
Data set [11] can be described thus: Bioavailability in Rhesus monkey. The settings on record: in vivo. The class given is ADME, organism-based, Macaca mulatta.
Data set [12] can be described thus: Plasma clearance in rat. The class given is ADME, organism-based. The settings on record: read-out: Clp.
Data set [13] in a line: Half-life in rat. The class given is ADME, organism-based. The settings on record: in vivo.
The nature of data set [14]: Volume of distribution in steady state was determined in rhesus monkey. Type of data set: ADME, organism-based. The settings on record: cercopithecidae, in vivo; read-out: Vdss.
Data set [15] in a line: Half-life in rhesus monkey. Type of data set: ADME. Particulars: cercopithecidae, in vivo.
A short description of data set [16]: Inhibitory concentration was determined against peripheral blood mononuclear cells (PBMC). The class given is functional.
The species entered for a further data set is Macaca mulatta. Briefly: Plasma clearance in rhesus monkey. The settings on record: read-out: Clp.

SMILES strings stand for the structures.

Sequence of C-C chemokine receptor type 5 (P51681 whole entry): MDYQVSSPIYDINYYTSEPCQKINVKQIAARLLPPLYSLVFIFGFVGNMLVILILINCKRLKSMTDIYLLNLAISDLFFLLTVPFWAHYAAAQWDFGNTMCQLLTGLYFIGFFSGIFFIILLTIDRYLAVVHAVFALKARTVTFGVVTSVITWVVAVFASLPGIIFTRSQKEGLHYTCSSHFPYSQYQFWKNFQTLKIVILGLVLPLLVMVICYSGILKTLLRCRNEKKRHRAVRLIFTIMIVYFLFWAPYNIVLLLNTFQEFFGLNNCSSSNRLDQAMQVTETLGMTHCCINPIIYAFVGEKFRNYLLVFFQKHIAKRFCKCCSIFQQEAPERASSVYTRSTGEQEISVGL

Usually IC50 stands for the concentration that gives 50% inhibition. In general, IC90 refers to the point of the concentration-response curve where the effect stands at 90%. For `O=C(O)[C@H](C1CCCCC1)N1C[C@H](CN2CCC(O)(CCCc3ccccc3)CC2)[C@@H](c2ccccc2)C1`, the IC50 in [1] stood at 5 nM. Further, the IC90 in [2] is above 300 nM.

For `COC(=O)[C@H](C1CCCCC1)N1C[C@H](CN2CCC(O)(CCCc3ccccc3)CC2)[C@@H](c2ccccc2)C1`, the IC50 in [1] is 4 nM.

As to `O=C(OCc1ccccc1)[C@@H](C1CCCCC1)N1C[C@H](CN2CCC(O)(CCCc3ccccc3)CC2)[C@@H](c2ccccc2)C1`, in [1], the IC50 came to 3.6 nM. This molecule also registered an IC90 in [2] above 300 nM.

As to `O=C(O)[C@@H](c1ccccc1)N1C[C@H](CN2CCC(O)(CCCc3ccccc3)CC2)[C@@H](c2ccccc2)C1`, in data set [1], the IC50 was 0.8 nM. The molecule further returned an IC90 in data set [2] of 33 nM.

Take `O=C(O)CN1C[C@H](CN2CCC(O)(CCCc3ccccc3)CC2)[C@@H](c2ccccc2)C1`: the IC50 in data set [1] was determined as 6 nM. This molecule had an IC90 in data set [2] of 3000 nM.

Turning to `C[C@H](C(=O)O)N1C[C@H](CN2CCC(O)(CCCc3ccccc3)CC2)[C@@H](c2ccccc2)C1`, in data set [1], the IC50 was found to be 3 nM. In data set [2], this molecule gave an IC90 of 333 nM.

A word on the bioavailability: it is the share of a dose that reaches the circulation, judged against a reference dose that is usually intravenous. The term half-life denotes how long it takes for the measured level to halve. One may read the IC95 as the concentration needed for an effect of 95%. For `O=C(O)[C@@H](C1CCCCC1)N1C[C@H](CN2CCC(CCCc3ccccc3)CC2)[C@@H](c2ccccc2)C1`, the clearance worked out at 17.1 mL/min/kg in data set [3], 10.9 mL/min/kg in [7] and 17.6 mL/min/kg in [12]. For the same molecule, the figures for the Vd in [4], in data set [8] and in data set [14] were 3.3 L/kg, 3.1 L/kg and 6.2 L/kg, respectively. Further, the values for the bioavailability in [5], in data set [9] and in [11] were 43%, 26% and 10%, respectively. The IC50 in [6] stood at 5300 nM; in data set [1] it was 0.1 nM. This molecule also came in with an IC90 in [2] of 11 nM. Also, the half-life in data set [10] was 9.2 h; in [13] it was 2.1 h; in data set [15], 6.3 h. Further, in data set [16], the IC95 was determined as 77 nM.

Regarding `OC[C@@H](C1CCCCC1)N1C[C@H](CN2CCC(O)(CCCc3ccccc3)CC2)[C@@H](c2ccccc2)C1`, in data set [1], the IC50 was 1 nM. In data set [2], this molecule gave an IC90 of 300 nM.

Turning to `O=C(O)[C@@H](C1CCCCC1)N1C[C@H](CN2CCC(c3ccc(F)cc3)CC2)[C@@H](c2ccccc2)C1`, in data set [1], the IC50 was 4 nM. Moreover, the IC90 in [2] amounted to 0.4 nM.

As for `OC[C@H](C1CCCCC1)N1C[C@H](CN2CCC(O)(CCCc3ccccc3)CC2)[C@@H](c2ccccc2)C1`, in data set [1], the IC50 is 1 nM.

Consider `O=C(O)[C@@H](CC1CCC1)N1C[C@H](CN2CCC(CCCc3ccccc3)CC2)[C@@H](c2ccccc2)C1`, for which the Vd in data set [4] is 5.9 L/kg. Also, the IC50 in data set [6] is 2700 nM; in data set [1], 0.1 nM. For the same molecule, the bioavailability in data set [9] was 29%. Further, in [2], it took 1.2 nM to reach the 90% level (IC90). Besides, in data set [12], the clearance turned out to be 26.5 mL/min/kg. The same molecule had a half-life in [13] of 3 h. The molecule also gave an IC95 in data set [16] below 8 nM.

`O=C(O)[C@@H](CC1CC1)N1C[C@H](CN2CCC(CCCc3ccccc3)CC2)[C@@H](c2ccccc2)C1`: the IC50 in [1] was determined as 0.1 nM. In addition, in [2], the IC90 is 11 nM.

Consider `CC(C)[C@H](C(=O)O)N1C[C@H](CN2CCC(O)(CCCc3ccccc3)CC2)[C@@H](c2ccccc2)C1`, for which the IC50 in [1] turned out to be 2 nM. In [2], this molecule displayed an IC90 of 333 nM.

On to `CC(C)[C@H](C(=O)O)N1C[C@H](CN2CCC(CCCc3ccccc3)CC2)[C@@H](c2ccccc2)C1`, for which the IC50 in data set [1] is 0.7 nM. In data set [2], this molecule returned an IC90 of 111 nM.

Take `O=C(O)[C@@H](C1CC1)N1C[C@H](CN2CCC(CCCc3ccccc3)CC2)[C@@H](c2ccccc2)C1`: in data set [1], the IC50 was determined as 3 nM. Moreover, it took 300 nM to reach the 90% level in data set [2] (IC90).

Take `OC1(CCCc2ccc(-c3nnn[nH]3)cc2)CCN(C[C@H]2CN(CC3CCCCC3)C[C@@H]2c2ccccc2)CC1`: in data set [6], the IC50 is above 10000 nM. Also, the bioavailability in data set [9] came to 0%. Besides, in [2], it took 4 nM to reach the 90% level (IC90). Further, the half-life in data set [13] was 0.3 h.

`O=C(O)[C@@H](C1CCC1)N1C[C@H](CN2CCC(CCCc3ccccc3)CC2)[C@@H](c2ccccc2)C1`: in data set [1], the IC50 was 0.1 nM. This molecule also gave an IC90 in [2] of 11 nM.

Turning to `O=C(OCc1ccccc1)[C@H](C1CCCCC1)N1C[C@H](CN2CCC(O)(CCCc3ccccc3)CC2)[C@@H](c2ccccc2)C1`, the IC50 in data set [1] is 24 nM. Further, the IC90 in data set [2] is above 300 nM.

With `O=C(O)[C@@H](C1CCCCC1)N1C[C@H](CN2CCC(O)(CCCc3ccccc3)CC2)[C@@H](c2ccccc2)C1`, the Vd in [4] was found to be 15 L/kg. Also, the IC50 in data set [1] was determined as 0.5 nM. The molecule also came in with a bioavailability in [9] of 0%. Besides, the 90% effect level in data set [2] (IC90) was put at 11 nM. Also, the clearance in [12] was determined as 128 mL/min/kg. Moreover, the half-life in [13] was 1.8 h. Besides, the IC95 in data set [16] stood at 187 nM.

Regarding `CC(C)[C@H](C(=O)O)N1C[C@H](CN2CCC(c3ccc(F)cc3)CC2)[C@@H](c2ccccc2)C1`, the Vd in data set [4] turned out to be 8.4 L/kg; in [8] it was 8.6 L/kg; in [14], 4.2 L/kg. Also, the bioavailability in data set [5] was found to be 34%; in [9], 50%; in data set [11] it was 84%. Further, the values for the IC50 in data set [6] and in data set [1] were above 10000 nM and 36 nM, respectively. The clearance in data set [7] was 13.1 mL/min/kg; in the data set listed under Macaca mulatta, 14.6 mL/min/kg; in [12] it was 68.3 mL/min/kg. In [2], this molecule returned an IC90 above 100 nM. Moreover, the figures for the half-life in data set [10], in data set [13] and in [15] were 6.4 h, 1.9 h and 7.8 h, respectively. In data set [16], this molecule yielded an IC95 above 3000 nM.

On to `COC(=O)[C@@H](C1CCCCC1)N1C[C@H](CN2CCC(O)(CCCc3ccccc3)CC2)[C@@H](c2ccccc2)C1`, for which the IC50 in [1] is 1 nM.

Turning to `O=C(O)[C@@H](C1CCCC1)N1C[C@H](CN2CCC(CCCc3ccccc3)CC2)[C@@H](c2ccccc2)C1`, the IC50 in data set [1] stood at 0.2 nM. It took 11 nM to reach the 90% level in data set [2] (IC90).
